Measured values taken from patent EP0263214A1, “Tetrapeptide methyl ketone inhibitors of viral proteases” (priority 1986, dated 1988).
Like-named read-outs stand apart in the source and are kept apart here. * marks the point of attachment. CH2Cl = ClC*

How the values were obtained:
human rhinovirus type 1A = assay type: cell-based
[1] = system: human poliomyelitis virus type 2; assay type: cell-based
Poliovirus type 2 = assay type: cell-based
rhinovirus type 1A = assay type: cell-based
chymotrypsin = details: inhibitor concentration of 600 ug/rnL; cited from earlier work
subtilisin BPN' = details: compared within a series of peptide chloromethyl ketones; cited from earlier work

In the case of `CC(=O)[C@H](CC(C)C)NC(=O)[C@H](C)NC(=O)CNC(=O)[C@H](Cc1ccccc1)NC(=O)OC(C)(C)C` [Boc-Phe-Gly-Ala-LeuCH3, reference compound], the “activity in the viral cleavage assay” value (human rhinovirus type 1A) is reported as “failed to show activity” and the “activity in the viral cleavage assay” value [1] is reported as “failed to show activity”.

For `COC(=O)CCC(=O)N[C@@H](Cc1ccccc1)C(=O)NCC(=O)N[C@@H](CC(C)C)C(=O)N[C@@H](CC(C)C)C(C)=O` [MeOSuc-Phe-Gly-Leu-LeuCH3], the “activity in the viral cleavage assay” value ([1]; 50 µg/mL) was “active”.

With `CC(=O)[C@H](CC(C)C)NC(=O)[C@H](C)NC(=O)CNC(=O)[C@H](Cc1ccccc1)NC(=O)OCc1ccccc1` [Z-Phe-Gly-Ala-LeuCH3] the cytotoxicity (HeLa cells) was “No cytotoxicity was observed”, the plaque reduction (Poliovirus type 2) was greater than 90% and the plaque reduction (rhinovirus type 1A) was greater than 90%. For the same compound, the “activity in the viral cleavage assay” value ([1]; 50 µg/mL) was “active”.

For Ac-Leu-Leu-PheCH3, the inhibition of chymotrypsin (chymotrypsin) is listed as “no inhibition was observed”.

For “acetyl-L-phenylalanyl-L-glycyl-L-alanyl-L-leucyl chloromethyl ketone (Ac-FGAL-CH2Cl; SMILES CC(=O)N[C@@H](Cc1ccccc1)C(=O)NCC(=O)N[C@@H](C)C(=O)N[C@@H](CC(C)C)C(=O)CCl) [Ac-Phe-Gly-Ala-LeuCH2CI]”, the “inhibition of subtilisin BPN'” value (subtilisin BPN') is listed as “fastest inhibitor”.
